Reference: publication PMC6085462 (Frontiers in Microbiology, 2018)
Entries after “also recorded” stand apart in the source; their conditions may differ. Where no end group is shown, it is not given here.

Experiments:
[1] = system: pancreatin; assay: pancreatin alone in the intestinal electrolyte solution; details: porcine, 37°C, up to 120 min
[2] = system: pancreatin; trypsin; assay: Duodenal solution: 8% pancreatin, 4% porcine bile solutions and 2 mg/mL trypsin solution in intestinal electrolyte solution adjusted to pH 6.3; details: 37°C, up to 120 min
[3] = system: pepsin; lipase; assay: TIM-1 gastric compartment: simulated gastric secretions containing pepsin (0.19 mg/mL) or lipase (0.25 mg/mL) in an electrolyte solution, pH 4.5 decreased gradually to 1.7; details: up to 60 min
[4] = system: elastase type IIA from porcine pancreas (EC 3.4.21.36); assay: elastase alone at a final concentration of 8 mg/mL in the intestinal electrolyte solution; details: 37°C, up to 120 min
[5] = system: elastase type IIA from porcine pancreas; assay: elastase alone in the intestinal electrolyte solution; details: 37°C, up to 120 min
[6] = system: pancreatin; trypsin; assay: static duodenal model: 8% pancreatin, 4% porcine bile, 2 mg/mL trypsin in intestinal electrolyte solution, pH 6.3; details: bovine trypsin, 37°C, up to 120 min
[7] = system: α-chymotrypsin from bovine pancreas (EC 3.4.21.1); assay: α-chymotrypsin alone at a final concentration of 8 mg/mL in the intestinal electrolyte solution; details: 37°C, up to 120 min
[8] = system: Pancreatin from porcine pancreas; assay: pancreatin alone at a final concentration of 8 mg/mL in the intestinal electrolyte solution; details: 37°C, up to 120 min
[9] = ref Kheadr et al., 2010; cited from earlier work
Excerpt: A bacteriocin is most often defined as a peptide of molecular mass mostly <10,000 Da that is inhibitory to species closely related to the producer species. Bacteriocins differ from antibiotics in being synthesized by translation of an mRNA transcript, having generally a narrow spectrum of activity and being effective at concentrations as low as nanomolar ([Nes, 2011]). Some bacteriocins may undergo post-translational modifications and as such belong to the family of ribosomally-synthesized and post-translationally-modified peptides (RiPPs) ([Arnison et al., 2013]) Their potential as antimicrob ...

Row | cleaved bond [3] | Substance | cleaved bond [1] | cleaved bond [2] | cleaved bond [4] | cleaved bond [5] | cleaved bond [6] | cleaved bond [7] | cleaved bond [8] | Antibacterial activity in the small intestine under gastrointestinal conditions [9]
1 | G14-T15, 60 min | GGAGHVPEYFVGIGTPISFYG | F10-V11, 0 min; also recorded: Y9-F10, 0 min; also recorded: I13-G14, 0 min | Y9-F10, first_seen, 0 min; also recorded: F10-V11, first_seen, 0 min; also recorded: I13-G14, first_seen, 0 min; also recorded: G12-I13, 60 min; also recorded: V11-G12, 60 min | F10-V11, 0 min; also recorded: I13-G14, major, 0 min; also recorded: Y9-F10, 0 min; also recorded: V11-G12, 0 min | F10-V11, 0 min; also recorded: I13-G14, 0 min; also recorded: Y9-F10, 0 min | I13-G14, 60 min; also recorded: F10-V11, 60 min; also recorded: Y9-F10, 60 min; also recorded: Y9-F10, 120 min; also recorded: V11-G12, 120 min | Y9-F10, major, 0 min; also recorded: F10-V11, 0 min | V11-G12, 0 min; also recorded: Y9-F10, major, 0 min; also recorded: F10-V11, 0 min; also recorded: I13-G14, 0 min | 
2 |  | pediocin PA-1 (KYYGNGVTCGKHSCSVDWGKATTCIINNGAMAWATGGHQGNHKC; ends and bridges not checked; cysteine pairing not given here; UniProt P29430 19-62, looked up) [class IIa bacteriocin] |  |  |  |  |  |  |  | losing completely its antibacterial activity
